row,Compound,melting point
1,"Cc1c(Cl)cc(C(C)(C)C)c(O)c1-c1nc2cc(S(=O)(=O)C(F)(F)F)ccc2[nH]1 [Example 1, 6-tert-Butyl-4-chloro-3-methyl-2-(5-trifluoromethanesulfonyl-1H-benzimidazol-2-yl)-phenol]",253 to 254 °C
2,"Cc1ccc(C(C)(C)C)c(O)c1-c1nc2cc(C#N)ccc2[nH]1 [Example 4, 2-(3-tert-Butyl-2-hydroxy-6-methyl-phenyl)-1H-benzimidazole-5-carbonitrile]",212 to 215 °C
3,"CCN(CC)S(=O)(=O)c1ccc2[nH]c(-c3c(C)c(Cl)cc(C(C)(C)C)c3O)nc2c1 [Example 6, 2-(3-tert-Butyl-5-chloro-2-hydroxy-6-methyl-phenyl)-1H-benzimidazole-5-sulfonic acid diethylamide]",277 to 278 °C
4,"Cc1c(Cl)cc(C(C)(C)C)c(O)c1-c1nc2cc(OC(F)(F)F)ccc2[nH]1 [Example 7, 6-tert-Butyl-4-chloro-3-methyl-2-(5-trifluoromethoxy-1H-benzimidazol-2-yl)-phenol]",243 to 244 °C
5,"COc1ccc(C(C)(C)C)c(O)c1-c1nc2cc(S(=O)(=O)C(F)(F)F)ccc2[nH]1 [Example 8, 6-tert-Butyl-3-methoxy-2-(5-trifluoromethanesulfonyl-1H-benzimidazol-2-yl)-phenol]",55 to 56 °C
6,"CSc1cc(C(C)(C)C)c(O)c(-c2nc3cc(S(=O)(=O)C(F)(F)F)ccc3[nH]2)c1C [Example 9, 6-tert-Butyl-3-methyl-4-methylsulfanyl-2-(5-trifluoromethanesulfonyl-1H-benzimidazol-2-yl)-phenol]",210 to 211 °C
7,"Cc1c(F)cc(C(C)(C)C)c(O)c1-c1nc2ccc(S(=O)(=O)C(F)(F)F)cc2[nH]1 [Example 11, 6-tert-Butyl-4-fluoro-3-methyl-2-(5-trifluoromethanesulfonyl-1H-benzimidazol-2-yl)-phenol]",245 to 247 °C
8,"Cc1ccc(C(C)(C)C)c(O)c1-c1nc2ccc(S(=O)(=O)C(F)(F)F)cc2[nH]1 [Example 12, 6-tert-Butyl-3-methyl-2-(5-trifluoromethanesulfonyl-1H-benzimidazol-2-yl)-phenol]",218 to 220 °C
9,"Cc1c(Br)cc(C(C)(C)C)c(O)c1-c1nc2cc(OC(F)(F)F)ccc2[nH]1 [Example 13, 6-tert-Butyl-4-bromo-3-methyl-2-(5-trifluoromethoxy-1H-benzimidazol-2-yl)-phenol]",235 to 236 °C

# From patent US7915299B2, “2-(2-hydroxyphenyl)benzimidazoles useful for treating obesity and diabetes” (High Point Pharmaceuticals, LLC, priority 2006, dated 2011)
